Laboratory results taken from US20260008776A1 (HANGZHOU POLYMED BIOPHARMACEUTICALS, INC., priority 2023, published 2026).
Read-outs that look alike come from different tables or passages of the source.

Experiments:
[1] = Simulated granulation test (dry and wet grinding); type: physicochemical; settings: dry grinding 30 minutes; wet grinding with ethanol 30 minutes
Description: The purpose was to determine whether polymorphs, solvates, or amorphous forms were readily generated.

[2] = Hygroscopicity study of crystal form A by dynamic vapor sorption (DVS); type: physicochemical; settings: for Desorption (%) / Sorption (%): DVS
Protocol: The important hygroscopicity of this compound was tested using a dynamic vapor sorption (DVS) instrument. DVS is a dynamic measurement method, so during the measurement process, the sample will undergo a change in mass. Like other types of research methods, DVS records the change in mass of the sample as the relative humidity changes.

[3] = Crystal form transformation, suspension competition experiments; type: physicochemical; settings: C, D, E, RT; for XRPD of solid after suspension competition: crystal forms A, G together (20 mg each), EtOH/H2O 1/1 (v/v); for XRPD: suspension competition of crystal forms A, G (20 mg each), DMSO/EtOH 1/8 (v/v) saturated solution 15 V
Protocol: In order to study the transformation relationship between various crystal forms and prepare various crystal forms under repeated conditions, a series of suspension competition experiments were carried out on crystal forms A, C, D, E, and G in different solvent systems. The specific experimental steps are as follows:
20 mg of each of crystal forms A, C, D, E, and G were weighed into 5 mL glass vials, and solvents (EtOH/H2O=1/1 (v/v) or DMSO (dimethyl sulfoxide)/EtOH=1/8 (v/v)) were added to form suspensions. The vials were then transferred to 25° C. and stirred for 72 hours. At various time points, the filter cakes were tested by XRPD.

[4] = Solid-state stability study, influencing factor test of crystal form A; type: physicochemical
Protocol: The glass dish or glass vial was then subjected to different environments in a constant temperature and humidity chamber. The conditions include: illumination: 4500±500 Lux; high temperature: 60° C. (sealed); and high humidity: 25° C. with relative humidity RH=90±5% (open).

[5] = High-pressure property test; type: physicochemical; settings: hydraulic pressure 10 tons, 5 minutes
Description: The resulting solid was characterized by XRPD and other methods to evaluate its crystal form stability under high-pressure conditions.

[6] = Pharmacokinetic test in rats, oral gavage; type: in vivo, Sprague-Dawley rats
Protocol: (§1) Subsequently, 976 μL of Tween 80 was added and vortexed for 30 seconds, followed by the addition of 488 μL of Kolliphor HS15 (Kolliphor HS15 was used after heating and melting at 50° C.) and vortexed for 30 seconds. Finally, 7808 L of saline was added and vortexed for 30 seconds, followed by ultrasonication for 10 seconds to remove bubbles. The resulting administration preparation was a suspension.
as §1, with “1034” for “976”, “517” for “488”, “8270 μL” for “7808 L”
Species and Strain: Sprague-Dawley rats (SD rats) (Zhejiang Vital River Laboratory Animal Technology Co., Ltd.) • Animal Grade: SPF level
Planned initial body weight for administration: Male 200-250 g. Actual animal weights will be listed in the raw records. • Number and Gender of Animals: 3 (3 per group), male
Based on measured body weights, animals with similar weights were divided into groups of 3 animals each. Blank group animals were used for the collection of blank biological matrices.
• Administration route: Oral gavage • Administration volume: 10 mL/kg • Administration frequency: Single dose • Administration method: The test sample was administered orally via gavage using an appropriate syringe and gavage tube. When using a 2 mL or 5 mL syringe, the administration volume was recorded to one decimal place. When the minimum graduation value of the syringe was 0.2 mL and the administration volume was between two graduation marks, the higher volume was selected for administration.
Sample collection: Approximately 0.30 mL of whole blood was collected from the orbital vein of Group 1 animals at each time point.
The experimental animals were fasted for 12 hours before administration, with free access to water. Blood samples were collected from Group 1 animals (oral gavage group) at 5 min, 15 min, 30 min, 1 h, 2 h, 4 h, 6 h, 8 h, and 24 h after administration.
Sample processing: The collected venous blood was immediately transferred to EDTA-Na2-coated EP tubes (stored in a refrigerator or in an ice box with crushed ice at 2-8° C. prior to use), inverted at least 5 times for thorough mixing, and temporarily stored in an ice box with crushed ice. The collected whole blood was centrifuged at 2000 g for 10 min under 2-8° C. conditions within 2 h to separate plasma, which was then placed in newly labeled centrifuge tubes and stored at −20° C.
The pharmacokinetics group of the Department of Pharmacology and Toxicology conducted the analysis and measurement of all samples, followed by data summarization. Plasma concentration data were analyzed using the pharmacokinetic data analysis software WinNonlin. Non-compartmental analysis (NCA) was employed to calculate pharmacokinetic parameters such as t1/2, Cmax, Tmax, Vd, CL, AUC0-24, and F. The detailed results are shown in the following table: […]

MV4-11 cells = test: Killing activity against MV4-11 cells (CellTiter-Glo, CTG); type: cell-based; settings: Homo sapiens, 72 hours incubation, read-out: IC50 of cell killing activity against MV4-11
Description: Reagent and consumable information is as follows: • MV4-11 Cells (ATCC, Cat. No. CRL-9591) • DPBS (Dulbecco's Phosphate Buffered Saline, Biosera, Cat. No. LM-S2041/500) • IMDM Medium (Thermo, Cat. No. 12440053) • Fetal Bovine Serum (Biological, Cat. No. 04-002-1A) • Penicillin-Streptomycin Solution (Invitrogen, Cat. No. 15140122) • Dimethyl Sulfoxide (Sigma, Cat. No. D2650) • CellTiter-Glo Luminescent Cell Viability Assay (Promega, Cat. No. G7573) • 96-Well Plate (Corning, Cat. No. 3903)
1. MV-4-11 cells were cultured in a complete IMDM medium (IMDM+10% fetal bovine serum+1% Penicillin-Streptomycin, a mixture of penicillin and streptomycin).
2. MV-4-11 cells with good cell status were collected and washed twice with DPBS (Dulbecco's phosphate buffered saline).
3. MV-4-11 cells were resuspended in a complete IMDM medium, adjusted to a cell density of 1.11×10^6 cells/mL, and 90 μL of the mixture was added to each well of a 96-well plate.
4. A 10-fold concentration of the compound solution was prepared in a complete IMDM medium, and 10 μL of the 10-fold concentration of the compound solution was added to each well of the 96-well plate. After mixing well, the 96-well plate was incubated in a 37° C., 5% CO2 incubator for 72 hours.
5. […]
6. The 96-well plate was removed and equilibrated at room temperature for 10 minutes, and then the chemiluminescence value was measured using a microplate reader.

[7] = rats, PO, 40 mpk, single dose, plasma

Structure (SMILES): CC(C)(O)CCn1cc2cc(NC(=O)c3coc(-c4ccnc(C(F)(F)F)c4)n3)c(C(C)(C)O)cc2n1 [crystal form A]
- Crystal form after simulated granulation (XRPD, DSC) [1]: have not changed
- Change in crystal form before and after DVS testing (XRPD) [2]: no change in crystal form
- Hygroscopicity (DVS), in words ([2]; 25° C., up to 90 RH): low hygroscopicity
- Moisture sorption (DVS) ([2]; 25° C./90 RH, two sorption-desorption curves): less than 0.0400
- Desorption (%) ([2]; first cycle, 0% RH): −0.01%
- Sorption (%) ([2]; first cycle, 0% RH): 0.00%
- Desorption (%) ([2]; first cycle, 10% RH): 0.00%
- Sorption (%) ([2]; first cycle, 10% RH): −0.01%
- Desorption (%) ([2]; first cycle, 20% RH): 0.00%
- Sorption (%) ([2]; first cycle, 20% RH): 0.00%
- Desorption (%) ([2]; first cycle, 30% RH): 0.00%
- Sorption (%) ([2]; first cycle, 30% RH): 0.00%
- Desorption (%) ([2]; first cycle, 40% RH): 0.01%
- Sorption (%) ([2]; first cycle, 40% RH): 0.00%
- Desorption (%) ([2]; first cycle, 50% RH): 0.02%
- Sorption (%) ([2]; first cycle, 50% RH): 0.01%
- Desorption (%) ([2]; first cycle, 60% RH): 0.02%
- Sorption (%) ([2]; first cycle, 60% RH): 0.01%
- Desorption (%) ([2]; first cycle, 70% RH): 0.03%
- Sorption (%) ([2]; first cycle, 70% RH): 0.02%
- Desorption (%) ([2]; first cycle, 80% RH): 0.03%
- Sorption (%) ([2]; first cycle, 80% RH): 0.03%
- Desorption (%) ([2]; first cycle, 90% RH): 0.03%
- Sorption (%) ([2]; first cycle, 90% RH): 0.03%
- Desorption (%) ([2]; second cycle, 0% RH): −0.01%
- Sorption (%) ([2]; second cycle, 0% RH): −0.01%
- Desorption (%) ([2]; second cycle, 10% RH): −0.01%
- Sorption (%) ([2]; second cycle, 10% RH): −0.01%
- Desorption (%) ([2]; second cycle, 20% RH): 0.00%
- Sorption (%) ([2]; second cycle, 20% RH): −0.01%
- Desorption (%) ([2]; second cycle, 30% RH): 0.00%
- Sorption (%) ([2]; second cycle, 30% RH): −0.01%
- Desorption (%) ([2]; second cycle, 40% RH): 0.01%
- Sorption (%) ([2]; second cycle, 40% RH): 0.00%
- Desorption (%) ([2]; second cycle, 50% RH): 0.01%
- Sorption (%) ([2]; second cycle, 50% RH): 0.01%
- Desorption (%) ([2]; second cycle, 60% RH): 0.02%
- Sorption (%) ([2]; second cycle, 60% RH): 0.01%
- Desorption (%) ([2]; second cycle, 70% RH): 0.03%
- Sorption (%) ([2]; second cycle, 70% RH): 0.02%
- Desorption (%) ([2]; second cycle, 80% RH): 0.03%
- Sorption (%) ([2]; second cycle, 80% RH): 0.02%
- Desorption (%) ([2]; second cycle, 90% RH): 0.03%
- Sorption (%) ([2]; second cycle, 90% RH): 0.03%
- Moisture Sorption ([2]; at 90% RH, DVS 25° C.): Moisture Sorption of 0.03% at 90% RH
- XRPD of solid after suspension competition ([3]; 24 hours): Crystal Form C
- XRPD of solid after suspension competition ([3]; 48 hours): Crystal Form C
- XRPD of solid after suspension competition ([3]; 72 hours): Crystal Form C
- XRPD ([3]; 24 hours): Crystal Form A
- XRPD ([3]; 48 hours): Crystal Form A
- XRPD ([3]; 72 hours): Crystal Form A
- Purity ([4]; High Relative Humidity (RH = 90 ± 5%, Open, 25° C.), 5 Days): 99.60%
- Purity ([4]; High Relative Humidity (RH = 90 ± 5%, Open, 25° C.), 11 Days): 99.56%
- Purity ([4]; High Temperature (60° C., Sealed), 5 Days): 99.26%
- Purity ([4]; High Temperature (60° C., Sealed), 11 Days): 99.67%
- Purity ([4]; Strong Illumination (Open), 5 Days): 99.67%
- Purity ([4]; Strong Illumination (Open), 11 Days): 99.44%
- Solid-state stability evaluation ([4]; illumination 4500±500 Lux, 60° C. sealed, 25° C. RH=90±5% open): good physical and chemical properties
- Purity ([4]; initial, before stress): 99.70%
- Crystal form after high-pressure treatment (XRPD) [5]: has not changed

Structure (SMILES): CC(C)(O)CCn1cc2cc(NC(=O)c3coc(-c4ccnc(C(F)(F)F)c4)n3)c(C(C)(C)O)cc2n1 [formula I]
- AUC(0-t) ([6]; male, Sprague-Dawley, rat, 40 mg/kg, rats, PO, 40 mpk, single dose, plasma, read-out: AUC0-24): 4880 ng·h/mL
- Cmax ([6]; male, Sprague-Dawley, rat, 40 mg/kg, rats, PO, 40 mpk, single dose, plasma, read-out: Cmax): 934 ng/mL
- IC50 (MV4-11 cells): 21 nM

Structure (SMILES): CC(C)(O)CCn1cc2cc(NC(=O)c3coc(-c4ccnc(C(F)(F)F)c4)n3)c(C(C)(C)O)cc2n1.Cl [hydrochloride salt]
- Plasma concentration and exposure compared with the free base ([6]; SD rats, single oral gavage, 4 mg/mL suspension, 10 mL/kg): significantly increase
- AUC0-24 [6, 7]: 27508.69 ng·h/mL
- Cmax [6, 7]: 5117.67 ng/mL
